Test results taken from patent US9493455B2, “Azaindole derivatives as inhibitors of protein kinases” (ORIBASE PHARMA, priority 2012, dated 2016).

What was measured:
[1] = test system: HuH7; test: In vitro cell proliferation assay (MTT); type: cell-based; conditions: Homo sapiens, Huh-7, 72 h
Protocol: (§1) Cancer cell lines (5×10^3 cells per well) or HUVEC (1×10^4 cells per well) or HRMEC (1×10^4 cells per well) were distributed in 96-well plates and incubating in duplicate with escalating concentrations (10 nM to 3 μM) of compounds for 72 hr. Cell proliferation was measured using MTT (3 [4,5-dimethylthiazol-2-yl]-2,5-diphenyltetrazolium bromide).

[2] = test system: HUVEC; test: In vitro cell proliferation assay (MTT); type: cell-based; conditions: Homo sapiens, 72 h
Protocol: as §1

[3] = test system: HepG2; test: In vitro cell proliferation assay (MTT); type: cell-based; conditions: Homo sapiens, HepG2, 72 h
Protocol: as §1

[4] = molecular target: T1, FGFR2 (Homo sapiens, UniProt P21802); test: In vitro kinase assay (Z′-LYTE); type: biochemical; conditions: read-out: % of inhibition of the kinase compared to the control
T1 construct: purchased Invitrogen
T1 sequence (P21802 22-821): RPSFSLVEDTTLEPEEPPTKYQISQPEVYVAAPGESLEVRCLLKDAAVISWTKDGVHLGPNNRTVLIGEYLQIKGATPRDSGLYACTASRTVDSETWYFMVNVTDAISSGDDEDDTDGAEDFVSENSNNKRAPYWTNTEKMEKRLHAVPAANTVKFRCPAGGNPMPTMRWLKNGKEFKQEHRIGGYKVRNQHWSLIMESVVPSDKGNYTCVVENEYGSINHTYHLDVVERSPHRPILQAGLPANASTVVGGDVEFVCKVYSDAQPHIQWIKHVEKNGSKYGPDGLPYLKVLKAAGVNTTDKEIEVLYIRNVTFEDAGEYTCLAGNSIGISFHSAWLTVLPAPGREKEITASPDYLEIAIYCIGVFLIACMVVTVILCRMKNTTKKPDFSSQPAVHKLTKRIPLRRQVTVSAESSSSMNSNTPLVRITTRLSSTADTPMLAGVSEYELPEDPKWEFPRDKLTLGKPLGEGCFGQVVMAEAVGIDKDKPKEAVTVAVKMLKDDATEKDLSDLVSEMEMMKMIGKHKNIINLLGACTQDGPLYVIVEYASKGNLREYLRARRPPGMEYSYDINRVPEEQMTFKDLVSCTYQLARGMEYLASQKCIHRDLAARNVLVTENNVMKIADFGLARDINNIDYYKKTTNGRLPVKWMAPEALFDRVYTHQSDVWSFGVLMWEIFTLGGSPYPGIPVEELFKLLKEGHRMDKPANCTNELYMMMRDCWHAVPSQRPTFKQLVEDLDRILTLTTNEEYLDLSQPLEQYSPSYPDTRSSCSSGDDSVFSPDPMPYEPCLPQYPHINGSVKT
Protocol: (§2) The inhibitory activity of the compounds on several kinases including BRAF, EGFR (ErbB1), EGFR (ErbB1) T790M L858R, FGFR2, KDR (VEGFR2), PDGFRA (PDGFR alpha), SRC and other was evaluated by Invitrogen using the Z′-LYTE® technology. Briefly, the Z′-LYTE® biochemical assay employs a fluorescence-based, coupled-enzyme format and is based on the differential sensitivity of phosphorylated and non-phosphorylated peptides to proteolytic cleavage. The peptide substrate is labeled with two fluorophores—one at each end—that make up a FRET pair. A ratiometric method, which calculates the ratio (the Emission Ratio) of donor emission to acceptor emission after excitation of the donor fluorophore at 400 nm, is used to quantitate reaction progress.
(§3) The compounds are screened in 1% DMSO (final) in the well. For 10 point titrations, 3-fold serial dilutions are conducted from the starting concentration. All Peptide/Kinase Mixtures are diluted to a 2× working concentration in the appropriate Kinase Buffer. All ATP Solutions are diluted to a 4× working concentration in Kinase Buffer (50 mM HEPES pH 7.5, 0.01% BRIJ-35, 10 mM MgCl2, 1 mM EGTA). ATP Km apparent is previously determined using a Z′-LYTE® assay.
(§4) Each compound was incubated at a concentration of 100 nM (excepted to test the activity against ABL and ABL T315I for which the compounds were incubated at a concentration of 10 μM) and the tables B1 to B12 summarize the results obtained showing the inhibitory power of a compound. The inhibitory activity of OR0512 was also investigated using the same assays and the kinases for which activity was inhibited at more than 50% at the concentration of 100 nM of OR0512 are listed in the table B13.

[5] = molecular target: T2, KDR (VEGFR2) (Homo sapiens, UniProt P35968); test: In vitro kinase assay (Z′-LYTE); type: biochemical; conditions: read-out: % of inhibition of the kinase compared to the control
T2 construct: purchased Invitrogen
T2 sequence (P35968 20-1356): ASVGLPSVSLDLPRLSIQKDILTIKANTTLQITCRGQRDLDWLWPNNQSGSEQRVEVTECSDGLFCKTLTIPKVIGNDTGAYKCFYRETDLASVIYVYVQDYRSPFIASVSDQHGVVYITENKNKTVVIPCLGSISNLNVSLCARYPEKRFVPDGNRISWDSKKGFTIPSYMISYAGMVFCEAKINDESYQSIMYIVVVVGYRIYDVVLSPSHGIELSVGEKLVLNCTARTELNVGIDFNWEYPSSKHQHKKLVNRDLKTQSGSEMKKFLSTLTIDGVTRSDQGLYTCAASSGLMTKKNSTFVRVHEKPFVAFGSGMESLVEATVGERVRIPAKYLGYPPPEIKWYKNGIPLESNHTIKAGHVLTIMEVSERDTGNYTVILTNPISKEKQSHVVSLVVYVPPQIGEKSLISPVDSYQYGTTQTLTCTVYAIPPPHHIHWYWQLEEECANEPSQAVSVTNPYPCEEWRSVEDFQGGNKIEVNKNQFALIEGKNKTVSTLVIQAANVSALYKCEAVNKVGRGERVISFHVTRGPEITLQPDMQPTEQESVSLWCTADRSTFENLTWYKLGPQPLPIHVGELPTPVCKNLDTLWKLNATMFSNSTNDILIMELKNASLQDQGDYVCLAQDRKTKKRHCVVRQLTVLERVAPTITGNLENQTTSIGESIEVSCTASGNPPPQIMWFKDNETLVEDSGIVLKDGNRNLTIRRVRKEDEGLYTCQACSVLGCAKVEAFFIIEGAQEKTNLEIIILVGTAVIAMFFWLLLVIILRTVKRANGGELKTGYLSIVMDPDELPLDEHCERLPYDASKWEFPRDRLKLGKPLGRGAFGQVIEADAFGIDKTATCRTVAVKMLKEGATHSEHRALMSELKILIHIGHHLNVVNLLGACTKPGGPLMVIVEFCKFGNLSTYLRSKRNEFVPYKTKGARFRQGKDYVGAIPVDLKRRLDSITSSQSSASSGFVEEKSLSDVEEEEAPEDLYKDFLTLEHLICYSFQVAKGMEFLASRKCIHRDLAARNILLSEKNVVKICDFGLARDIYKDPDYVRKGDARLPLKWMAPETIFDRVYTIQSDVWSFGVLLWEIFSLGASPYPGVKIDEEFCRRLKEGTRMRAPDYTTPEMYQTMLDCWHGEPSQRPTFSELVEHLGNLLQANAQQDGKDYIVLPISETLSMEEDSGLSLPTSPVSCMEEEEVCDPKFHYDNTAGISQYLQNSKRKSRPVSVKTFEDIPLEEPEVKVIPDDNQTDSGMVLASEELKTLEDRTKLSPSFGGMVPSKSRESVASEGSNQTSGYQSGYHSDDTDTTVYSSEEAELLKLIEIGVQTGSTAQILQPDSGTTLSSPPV
Protocol: as §2, §3, §4

[6] = molecular target: T3, BRAF (Homo sapiens, UniProt P15056); test: In vitro kinase assay (Z′-LYTE); type: biochemical; conditions: compound 100 nM; ATP 100 μM; read-out: % of inhibition of the kinase compared to the control
T3 construct: purchased Invitrogen
T3 sequence (P15056 whole entry): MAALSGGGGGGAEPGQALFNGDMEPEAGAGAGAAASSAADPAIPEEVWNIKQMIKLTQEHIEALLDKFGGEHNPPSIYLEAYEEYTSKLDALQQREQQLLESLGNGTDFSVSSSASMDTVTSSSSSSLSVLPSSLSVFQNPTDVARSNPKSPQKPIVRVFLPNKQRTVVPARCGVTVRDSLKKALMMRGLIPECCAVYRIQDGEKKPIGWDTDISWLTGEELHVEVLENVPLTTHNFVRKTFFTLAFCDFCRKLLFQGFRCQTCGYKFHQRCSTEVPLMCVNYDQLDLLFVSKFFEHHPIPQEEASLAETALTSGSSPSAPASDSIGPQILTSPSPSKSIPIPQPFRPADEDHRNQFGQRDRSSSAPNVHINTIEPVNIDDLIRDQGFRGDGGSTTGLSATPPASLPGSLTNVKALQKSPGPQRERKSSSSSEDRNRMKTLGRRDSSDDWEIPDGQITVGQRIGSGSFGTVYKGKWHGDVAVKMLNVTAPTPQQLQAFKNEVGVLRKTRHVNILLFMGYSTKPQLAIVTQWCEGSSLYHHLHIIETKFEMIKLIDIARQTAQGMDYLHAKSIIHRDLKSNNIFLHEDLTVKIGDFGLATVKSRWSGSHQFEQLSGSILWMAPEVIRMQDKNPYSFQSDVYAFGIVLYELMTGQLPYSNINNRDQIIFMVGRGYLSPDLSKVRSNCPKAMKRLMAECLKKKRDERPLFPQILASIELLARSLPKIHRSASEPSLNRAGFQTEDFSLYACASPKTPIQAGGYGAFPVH
Protocol: as §2, §3, §4

[7] = molecular target: T4, EGFR (ErbB1) (Homo sapiens, UniProt P00533); test: In vitro kinase assay (Z′-LYTE); type: biochemical; conditions: read-out: % of inhibition of the kinase compared to the control
T4 construct: purchased Invitrogen
Protocol: as §2, §3, §4

[8] = molecular target: T5, SRC (Homo sapiens, UniProt P12931); test: In vitro kinase assay (Z′-LYTE); type: biochemical; conditions: read-out: % of inhibition of the kinase compared to the control
T5 construct: purchased Invitrogen
T5 sequence (P12931 whole entry): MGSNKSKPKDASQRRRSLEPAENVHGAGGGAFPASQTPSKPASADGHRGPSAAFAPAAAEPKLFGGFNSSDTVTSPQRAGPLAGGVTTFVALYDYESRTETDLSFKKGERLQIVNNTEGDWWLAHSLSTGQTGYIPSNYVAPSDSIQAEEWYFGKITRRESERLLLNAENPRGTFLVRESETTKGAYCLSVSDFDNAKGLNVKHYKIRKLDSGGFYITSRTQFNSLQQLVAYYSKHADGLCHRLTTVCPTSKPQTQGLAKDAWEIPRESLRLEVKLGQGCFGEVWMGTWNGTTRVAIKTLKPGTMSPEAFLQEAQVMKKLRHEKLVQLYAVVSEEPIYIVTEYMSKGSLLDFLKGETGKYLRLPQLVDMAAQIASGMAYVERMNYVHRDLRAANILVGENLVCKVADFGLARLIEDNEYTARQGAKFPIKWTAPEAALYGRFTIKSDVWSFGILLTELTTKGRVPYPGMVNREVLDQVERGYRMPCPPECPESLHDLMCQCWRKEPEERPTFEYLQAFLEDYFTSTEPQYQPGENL
Protocol: as §2, §3, §4

[9] = molecular target: T6, PDGFRA (PDGFR alpha) (Homo sapiens, UniProt P16234); test: In vitro kinase assay (Z′-LYTE); type: biochemical; conditions: read-out: % of inhibition of the kinase compared to the control
T6 construct: purchased Invitrogen
T6 sequence (P16234 24-1089): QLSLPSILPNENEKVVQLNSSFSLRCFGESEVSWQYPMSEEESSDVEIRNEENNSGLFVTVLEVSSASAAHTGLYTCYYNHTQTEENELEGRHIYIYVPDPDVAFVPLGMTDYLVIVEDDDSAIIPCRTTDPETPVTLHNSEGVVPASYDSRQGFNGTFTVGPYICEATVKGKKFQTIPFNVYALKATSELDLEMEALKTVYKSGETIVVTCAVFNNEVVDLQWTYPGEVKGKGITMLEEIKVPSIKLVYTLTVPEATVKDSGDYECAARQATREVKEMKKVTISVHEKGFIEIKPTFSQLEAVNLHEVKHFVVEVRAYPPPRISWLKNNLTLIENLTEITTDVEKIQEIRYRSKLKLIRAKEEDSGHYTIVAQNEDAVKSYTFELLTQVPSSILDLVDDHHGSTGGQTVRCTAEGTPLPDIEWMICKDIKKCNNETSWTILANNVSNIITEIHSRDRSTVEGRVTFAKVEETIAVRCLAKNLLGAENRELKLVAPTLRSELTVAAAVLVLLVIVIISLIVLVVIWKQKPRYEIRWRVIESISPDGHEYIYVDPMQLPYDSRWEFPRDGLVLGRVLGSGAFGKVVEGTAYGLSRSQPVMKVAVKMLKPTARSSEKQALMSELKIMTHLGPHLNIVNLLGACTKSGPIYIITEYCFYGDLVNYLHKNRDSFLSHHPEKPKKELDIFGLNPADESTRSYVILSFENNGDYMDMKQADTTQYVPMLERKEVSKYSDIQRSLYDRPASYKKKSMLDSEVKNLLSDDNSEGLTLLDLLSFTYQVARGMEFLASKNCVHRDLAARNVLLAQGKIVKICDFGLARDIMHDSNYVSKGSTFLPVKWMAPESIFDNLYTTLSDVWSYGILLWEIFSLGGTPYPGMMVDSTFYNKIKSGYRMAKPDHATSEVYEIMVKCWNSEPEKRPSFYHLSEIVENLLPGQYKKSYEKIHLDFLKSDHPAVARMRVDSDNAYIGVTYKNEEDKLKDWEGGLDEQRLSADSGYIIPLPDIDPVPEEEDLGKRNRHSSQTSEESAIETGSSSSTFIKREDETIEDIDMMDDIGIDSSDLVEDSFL
Protocol: as §2, §3, §4

[10] = test system: H1975; test: In vitro cell proliferation assay (MTT); type: cell-based; conditions: Homo sapiens, NCI-H1975, 72 h
Protocol: as §1

[11] = test system: A549; test: In vitro cell proliferation assay (MTT); type: cell-based; conditions: Homo sapiens, A549, 72 h
Protocol: as §1

[12] = test system: HuCCT1; test: In vitro cell proliferation assay (MTT); type: cell-based; conditions: Homo sapiens, HuCCT-1, 72 h
Protocol: as §1

[13] = test system: BxPC-3; test: In vitro cell proliferation assay (MTT); type: cell-based; conditions: Homo sapiens, BXPC-3, 72 h
Protocol: as §1

[14] = test system: HT29; test: In vitro cell proliferation assay (MTT); type: cell-based; conditions: Homo sapiens, HT-29, 72 h
Protocol: as §1

[15] = molecular target: T7, ABL (Homo sapiens, UniProt P00519); test: In vitro kinase assay (Z′-LYTE); type: biochemical; conditions: read-out: % of inhibition of the kinase compared to the control
T7 construct: purchased Invitrogen
Protocol: as §2, §3, §4

[16] = molecular target: T8, EGFR (ErbB1) T790M L858R (Homo sapiens, UniProt P00533, L858R/T790M); test: In vitro kinase assay (Z′-LYTE); type: biochemical; conditions: read-out: % of inhibition of the kinase compared to the control
T8 construct: purchased Invitrogen
Protocol: as §2, §3, §4

[17] = molecular target: T9, ABL T315I (Homo sapiens, UniProt P00519, T315I); test: In vitro kinase assay (Z′-LYTE); type: biochemical; conditions: read-out: % of inhibition of the kinase compared to the control
T9 construct: purchased Invitrogen
Protocol: as §2, §3, §4

[18] = molecular target: T10, FGFR1 (Homo sapiens, UniProt P11362); test: In vitro kinase assay (Z′-LYTE); type: biochemical; conditions: read-out: % of inhibition of the kinase compared to the control
T10 construct: purchased Invitrogen
Protocol: as §2, §3, §4

[19] = molecular target: T11, VEGFR1 (Homo sapiens, UniProt P17948); test: In vitro kinase assay (Z′-LYTE); type: biochemical; conditions: read-out: % of inhibition of the kinase compared to the control
T11 construct: purchased Invitrogen
Protocol: as §2, §3, §4

[20] = molecular target: T12, PDGFRB (Homo sapiens, UniProt P09619); test: In vitro kinase assay (Z′-LYTE); type: biochemical; conditions: read-out: % of inhibition of the kinase compared to the control
T12 construct: purchased Invitrogen
Protocol: as §2, §3, §4

| Structure (SMILES) | EC50 [1] [µM] | EC50 [3] [µM] | inhibition at 0.1 µM [4] [%] | inhibition at 0.1 µM [5] [%] | inhibition at 0.1 µM [6] [%] | inhibition at 0.1 µM [7] [%] | inhibition at 0.1 µM [8] [%] | inhibition at 0.1 µM [9] [%] | EC50 [10] [µM] | EC50 [11] [µM] | EC50 [13] [µM] | EC50 [14] [µM] | inhibition at 10 µM [15] [%] | inhibition at 0.1 µM [16] [%] | inhibition at 10 µM [17] [%] | inhibition at 0.1 µM [18] [%] | inhibition at 0.1 µM [19] [%] | inhibition at 0.1 µM [20] [%] | EC50 [2] [µM] | EC50 [12] [µM] |
| --- | --- | --- | --- | --- | --- | --- | --- | --- | --- | --- | --- | --- | --- | --- | --- | --- | --- | --- | --- | --- |
| COC(=O)c1cc2cc(NCc3cc(NC(=O)c4ccc(CN5CCN(C)CC5)c(C(F)(F)F)c4)ccc3F)cnc2[nH]1 [OR0816] | 0.1 to 1 | 0.1 to 1 | ≥ 50 | ≥ 50 | < 50 | ≥ 50 | ≥ 50 | ≥ 50 |  |  |  |  |  |  |  |  |  |  | ≤ 0.1 |  |
| COC(=O)c1cc2cc(NCc3cc(NC(=O)c4ccnc(C(F)(F)F)c4)ccc3C)cnc2[nH]1 [OR0866] | ≥ 1 | 0.1 to 1 | < 50 | < 50 | < 50 | < 50 |  | < 50 |  |  |  |  |  |  |  |  |  |  | 0.1 to 1 |  |
| COC(=O)c1cc2cc(NCc3cc(NC(=O)Cc4ccccc4Br)ccc3C)cnc2[nH]1 [OR0599] |  | 0.1 to 1 | < 50 | < 50 | ≥ 50 | < 50 | ≥ 50 | ≥ 50 | 0.1 to 1 | 0.1 to 1 | ≥ 1 | ≥ 1 | ≥ 50 | < 50 | < 50 | < 50 | < 50 | ≥ 50 | 0.1 to 1 | ≥ 1 |
| COC(=O)c1cc2cc(NCc3cc(NC(=O)c4cncc(C)c4)ccc3C)cnc2[nH]1 [OR0867] | ≥ 1 | 0.1 to 1 | < 50 | ≥ 50 | ≥ 50 | ≥ 50 |  |  |  |  |  |  |  |  |  |  |  |  | ≥ 1 |  |
| COC(=O)c1cc2cc(NCc3cc(NC(=O)c4ccc(O)c(C(F)(F)F)c4)ccc3C)cnc2[nH]1 [OR0605] | 0.1 to 1 |  | < 50 | < 50 | < 50 | ≥ 50 | ≥ 50 | ≥ 50 |  |  | ≥ 1 |  | ≥ 50 | < 50 | < 50 | < 50 | < 50 | < 50 |  |  |
| COC(=O)c1cc2cc(NCc3cc(NC(=O)c4ccnc(C)c4)ccc3C)cnc2[nH]1 [OR0868] | ≥ 1 | ≥ 1 | < 50 | < 50 | ≥ 50 | < 50 |  |  |  |  |  |  |  |  |  |  |  |  | 0.1 to 1 |  |

Further lines, with some results ahead:

| EC50 [1] [µM] | EC50 [3] [µM] | inhibition at 0.1 µM [4] [%] | inhibition at 0.1 µM [5] [%] | inhibition at 0.1 µM [6] [%] | inhibition at 0.1 µM [7] [%] | inhibition at 0.1 µM [8] [%] | inhibition at 0.1 µM [9] [%] | EC50 [10] [µM] | EC50 [11] [µM] | EC50 [13] [µM] | EC50 [14] [µM] | inhibition at 10 µM [15] [%] | inhibition at 0.1 µM [16] [%] | inhibition at 10 µM [17] [%] | inhibition at 0.1 µM [18] [%] | inhibition at 0.1 µM [19] [%] | inhibition at 0.1 µM [20] [%] | Structure (SMILES) | EC50 [2] [µM] | EC50 [12] [µM] |
| --- | --- | --- | --- | --- | --- | --- | --- | --- | --- | --- | --- | --- | --- | --- | --- | --- | --- | --- | --- | --- |
| 0.1 to 1 | 0.1 to 1 | < 50 | < 50 | < 50 | ≥ 50 | ≥ 50 | ≥ 50 |  |  |  |  |  |  |  |  |  |  | COC(=O)c1cc2cc(NCc3cc(NC(=O)c4ccc(Cl)c(C(F)(F)F)c4)ccc3C)cnc2[nH]1 [OR0871] | 0.1 to 1 |  |
| 0.1 to 1 | ≥ 1 | < 50 | < 50 | < 50 | ≥ 50 | ≥ 50 | < 50 |  |  |  |  |  |  |  |  |  |  | COC(=O)c1cc2cc(NCc3cc(NC(=O)c4ccc(C)c(C(F)(F)F)c4)ccc3C)cnc2[nH]1 [OR0869] | 0.1 to 1 |  |
| ≥ 1 | ≥ 1 | < 50 | < 50 | < 50 | < 50 |  | < 50 |  |  |  |  |  |  |  |  |  |  | COC(=O)c1cc2cc(NCc3cc(NS(=O)(=O)c4cccc(C(F)(F)F)c4)ccc3C)cnc2[nH]1 [OR0882] | ≥ 1 |  |
